In brackets after ≈: the same amount, converted by molar mass. Read-outs that look alike come from different tables or passages of the source.
How the values were obtained:
Assay type in all cases: cell-based, Staphylococcus aureus
Settings in all cases: for ICF / IC50 ± SE / MIC ± SE: resazurin
S. aureus RN4220 = system: S. aureus RN4220
Excerpt: (§1) Based on the broth microdilution assay results for W2-FL10 and melittin, the S. aureus ATCC 25923 (reference), S. aureus RN4220 (laboratory; MSSA), or methicillin-resistant S. aureus Xen 30 (clinical; MRSA) strains were selected for further antibacterial studies. Resazurin (also referred to as Alamar Blue) is a blue, non-fluorescent dye that can be reduced to resorufin (a pink, fluorescent compound) by metabolically active cells. The dye can thus be used as a quantitative indicator of cell viability ([52]). Therefore, a broth microdilution assay coupled with resazurin [prepared to a stock solution of 0.3 mg/mL in PBS; ([53])] was used to determine the influence of cations (Mg^2+ and Ca^2+), commercial LTA of S. aureus and DOPG on the potency of W2-FL10 against S. aureus ATCC 25923, S. aureus RN4220 and MRSA Xen 30 as described by Wu et al. ([54]).
(§2) For investigating the influence of cations on the antibacterial potency of W2-FL10, a clear 96-well plate was prepared with W2-FL10 and air dried as described in the “Antibacterial activity: broth microdilution assay” section. The S. aureus strains were inoculated into MHB or CA-MHB, grown to mid-log phase (OD600 of 0.5–0.6), and diluted to OD600 of 0.4. A 1:20 dilution of the test strain (final concentration of ∼10^5 CFU/mL) was prepared and 100 µL was dispensed into each well (final concentration of W2-FL10 at 1.56 to 25 µg/mL). Sterile broth (i.e., MHB or CA-MHB) and the OD-adjusted inoculum were included in the assay as a positive control, while sterile broth (i.e., MHB or CA-MHB) was included as a sterility control. The plate was incubated for 24 h at 37°C.
(§3) Similarly, the possible interaction and binding of LTA of S. aureus and DOPG (both at 1 mg/mL in 10% EtOH) with the lipopeptide W2-FL10 was investigated ([54]). Briefly, a clear 96-well plate was prepared with W2-FL10 and air dried as described in the “Antibacterial activity: broth microdilution assay” section. Thereafter, 10 µL of LTA from S. aureus or DOPG was dispensed into the respective wells. The S. aureus strains were grown to mid-log phase in MHB (OD600 of 0.5–0.6) and diluted to OD600 of 0.4. A 1:20 dilution of test strain (final concentration of ∼10^5 CFU/mL) was prepared, 100 µL was dispensed into each well (final concentration of W2-FL10 at 3.13 to 100 µg/mL), and the plate was incubated for 24 h at 37°C. Sterile broth, the OD-adjusted inoculum, and the respective LTA or DOPG were included in the assay as a positive control, while sterile broth and LTA or DOPG were included as a sterility control.
(§4) After incubation of both plates, 10 µL of resazurin (0.3 mg/mL) was added to each well and the plate was incubated at 37°C for 1 h. Fluorometric readings of the experimental plates were conducted using a Tecan Spark 10M Multimode Microplate Reader at 560 nm excitation wavelength and 590 nm emission wavelength. For all resazurin assays, the percentage inhibition was calculated as described by van Rensburg et al. ([53]). All experiments were performed in triplicate, with independent biological duplicates. […] Dose-response curves (nonlinear regression using equation 1) were processed as described by Rautenbach et al. ([17]) (also see description above), and IC50 values were deduced from the best-fit sigmoidal curves (R^2 ≥ 0.98). Statistical analyses were done by comparing W2-FL10 IC50, in the presence of Ca^2+ and Mg^2+, in the presence of DOPG, and in the presence of LTA toward the control condition each of the three S. aureus strains using one-way analysis of variance (ANOVA) with Bonferroni’s post hoc test.

S. aureus ATCC 25923 = system: S. aureus ATCC 25923
Excerpt: as §1, §2, §3, §4

MRSA Xen 30 = system: MRSA Xen 30
Excerpt: as §1, §2, §3, §4

[1] = LTA 100 µg/mL vs control, P < 0.001
[2] = Control (MHB), 24 h 37°C, n = 4
[3] = LTA of S. aureus 100 µg/mL, n = 3

## CCCCCCCC1CC(=O)N[C@H](CC(C)C)C(=O)N[C@@H](CO)C(=O)N[C@@H]([C@@H](C)O)C(=O)N[C@H](Cc2ccccc2)C(=O)N[C@@H](CC(C)C)C(=O)O1 (stereo partly drawn) [W2-FL10, serrawettin W2-FL10]
S. aureus RN4220; [1]
  increase in the IC50 in the presence of LTA: twofold
S. aureus RN4220; Ca2+ and Mg2+ (CA-MHB)
  ICF: 6.3
S. aureus RN4220; Ca2+ and Mg2+ (CA-MHB), n = 3
  IC50 ± SE: 10 µg/mL (≈ 13.7 µM)
  MIC ± SE: 25.0 ± 0.0 µg/mL (≈ 34.2 µM)
S. aureus RN4220; Control (MHB)
  ICF: 3.6
S. aureus RN4220; [2]
  MIC ± SE: 25.0 ± 0.0 µg/mL (≈ 34.2 µM)
S. aureus RN4220; Control (MHB), n = 4
  IC50 ± SE: 13.2 µg/mL (≈ 18 µM)
S. aureus RN4220; DOPG 100 µg/mL
  ICF: 2.2
S. aureus RN4220; DOPG 100 µg/mL, n = 3
  IC50 ± SE: 44.6 µg/mL (≈ 60.9 µM)
  MIC ± SE: 66.7 ± 16.7 µg/mL (≈ 91.1 µM)
S. aureus RN4220; LTA 100 µg/mL
  ICF: 3.5
S. aureus RN4220; LTA 100 µg/mL, n = 3
  IC50 ± SE: 26.8 µg/mL (≈ 36.6 µM)
S. aureus RN4220; [3]
  MIC ± SE: 50.0 ± 0.0 µg/mL (≈ 68.3 µM)
S. aureus ATCC 25923; DOPG 100 µg/mL vs control, P < 0.001
  increase in the IC50 in the presence of DOPG: twofold
S. aureus ATCC 25923; Ca2+ and Mg2+ (CA-MHB)
  ICF: 2.2
S. aureus ATCC 25923; Ca2+ and Mg2+ (CA-MHB), n = 4
  IC50 ± SE: 8.4 µg/mL (≈ 11.5 µM)
  MIC ± SE: 12.5 ± 0.0 µg/mL (≈ 17.1 µM)
S. aureus ATCC 25923; Control (MHB)
  ICF: 4.3
S. aureus ATCC 25923; [2]
  MIC ± SE: 21.9 ± 3.1 µg/mL (≈ 29.9 µM)
S. aureus ATCC 25923; Control (MHB), n = 4
  IC50 ± SE: 10.6 µg/mL (≈ 14.5 µM)
S. aureus ATCC 25923; DOPG 100 µg/mL
  ICF: 6.3
S. aureus ATCC 25923; DOPG 100 µg/mL, n = 4
  IC50 ± SE: 22.5 µg/mL (≈ 30.7 µM)
  MIC ± SE: 56.3 ± 15.7 µg/mL (≈ 76.9 µM)
S. aureus ATCC 25923; LTA 100 µg/mL
  ICF: 6.3
S. aureus ATCC 25923; LTA 100 µg/mL, n = 4
  IC50 ± SE: 16.6 µg/mL (≈ 22.7 µM)
S. aureus ATCC 25923; [3]
  MIC ± SE: 41.7 ± 8.3 µg/mL (≈ 57 µM)
MRSA Xen 30; [1]
  increase in the IC50 in the presence of LTA: twofold
MRSA Xen 30; Ca2+ and Mg2+ (CA-MHB)
  ICF: 1.7
MRSA Xen 30; Ca2+ and Mg2+ (CA-MHB), n = 4
  IC50 ± SE: 12.2±0.2 (5) 9.5±1.5 (4) 40.6±2.0 (4) 24.6±0.1 (4) µg/mL
  MIC ± SE: 12.5 ± 0.0 µg/mL (≈ 17.1 µM)
MRSA Xen 30; Control (MHB)
  ICF: 3.4
MRSA Xen 30; Control (MHB), 24 h 37°C, n = 5
  MIC ± SE: 22.5 ± 2.5 µg/mL (≈ 30.7 µM)
MRSA Xen 30; Control (MHB), n = 5
  IC50 ± SE: 12.2 µg/mL (≈ 16.7 µM)
MRSA Xen 30; DOPG 100 µg/mL
  ICF: 2.4
MRSA Xen 30; DOPG 100 µg/mL, n = 4
  IC50 ± SE: 40.6 µg/mL (≈ 55.5 µM)
  MIC ± SE: 62.5 ± 12.5 µg/mL (≈ 85.4 µM)
MRSA Xen 30; LTA 100 µg/mL
  ICF: 4.1
MRSA Xen 30; LTA 100 µg/mL, n = 4
  IC50 ± SE: 24.6 µg/mL (≈ 33.6 µM)
MRSA Xen 30; [3]
  MIC ± SE: 50.0 ± 17.7 µg/mL (≈ 68.3 µM)

From paper PMC11218446, “Antibacterial efficacy and membrane mechanism of action of the Serratia-derived non-ionic lipopeptide, serrawettin W2-FL10” (Microbiology Spectrum, 2024)
